Test results reported in US20230414632A1, “INHIBITION OF THE HIV-1 REPLICATION BY COMPOUNDS DIRECTED AGAINST A NEW TARGET OF THE VIRAL CYCLE” (priority 2020, published 2023).

Experiments:
[1] = tested on: HIV-1 gfp+ virus in MT4 cells; test: Ex-vivo inhibition of HIV-1 replication (multi-cycle, HIV-1 gfp+ in MT4 cells, flow cytometry); type: cell-based; conditions: 10 μM compound, day 5, MT4 cells infected with HIV gfp+
Experimental: Ability of compounds of formula I or II to inhibit the HIV-1 replicative cycle ex vivo was conducted by methods commonly used in antiretroviral pharmacology.
MT4 cell line (Charneau et al. J. Virol. 1992, 66:2814) were maintained in RPMI 1640. HEK293T were maintained in Dulbecco's Modified Eagle Medium (DMEM). All media were supplemented with Glutamax and with 10% heat-inactivated fetal calf serum (Hyclone) and 1% penicillin/streptomycin (100 units/mL) (Gibco). All media were purchased from Gibco (Life Technologies Co.). All cell lines used here were incubated at 37° C., under 5% CO2 atmosphere. […]
For HIV-1 gfp+ vectors, viral replication is followed by GFP expression [i.e. the percentage and geometric mean fluorescence intensity (MFI) of GFP^+ cells]. […] Toxicity is also assessed by flow cytometry (side and forward scatter).
At J0 (day zero) MT4 cells was used for infection with HIV gfp+ virus at multiplicity of infection (m.o.i.) reaching 0.1-0.2 (50 ng of p24^gag antigen per 10^6 cells). […] At time J5 (day five), cells are then collected for cytometry analysis to quantify the production of viral particles and cell survival.

MT4 cells = test: Cell survival / cellular toxicity in infected MT4 cells (flow cytometry); type: cell-based; conditions: up to 10 μM compound, day 5, MT4 cells
Experimental: For HIV-1 gfp+ vectors, viral replication is followed by GFP expression [i.e. the percentage and geometric mean fluorescence intensity (MFI) of GFP^+ cells]. Infectivity was estimated by flow cytometry using a FACSCalibur™ cytofluorometer (BD Biosciences). Toxicity is also assessed by flow cytometry (side and forward scatter).
At J0 (day zero) MT4 cells was used for infection with HIV gfp+ virus at multiplicity of infection (m.o.i.) reaching 0.1-0.2 (50 ng of p24^gag antigen per 10^6 cells). Two days post-infection (J2), MT4 cells are washed extensively (3 times with PBS) and resuspended using fresh RPMI medium (2×10^5 cells per ml) and plated into 6 well plates (2 ml per well) in the presence of compounds of formula I or II at various molecules concentrations. A control not infected with the virus (MT4 Ninf), or brought into contact with DMSO (inf DMSO, the solvent of compounds of formula I or II), or with dolutegravir (DTG) at 100 nM, a known inhibitor of the integrase, are conducted in parallel. At time J5 (day five), cells are then collected for cytometry analysis to quantify the production of viral particles and cell survival.

[2] = target: interaction between the HIV-1 integrase (IN) and the catalytic domain of the human mitochondrial lysyl-tRNA synthetase (mLysRS) (Homo sapiens (Human), UniProt P12497+Q15046); test: HTRF assay of the mLysRS:IN interaction; type: binding, HIV-1 / human; conditions: compound from 17 to 666 μM
Experimental: Experiments were performed on the interaction between the HIV-1 integrase (IN) and the catalytic domain of the human mitochondrial lysyl-tRNA synthetase (mLysRS), which constitutes the main contribution to the Gag Pol:mLysRS interaction.
Homogeneous time-resolved fluorescence (HTRF) assays were performed in black, half-area, flat bottom, 96-well microplates (Costar #3694). Human mitochondrial LysRS with a C-terminal HA-tag (mLysRS-HA), diluted in HTRF buffer (10 mM Tris-HCl pH 7.5, 50 mM NaCl, 10 mM 2-mercaptoethanol, BSA at 1 mg/ml) was added (20 μl at a dimer concentration of 3.75 nM) in the wells of microplates placed on ice. Compounds of formula I or II (1 μl of a 10 mM solution in DMSO) were then added to the wells, and mixing was achieved by pipetting up and down 3-times 10 μl. […]
A 10 μl solution of KF prepared in HTRF buffer at a concentration of 250 mM was then added and mixing was achieved by pipetting up and down 3-times 20 μl. After centrifugation at 900 g for 3 min at 4° C., fluorescence of Eu^3+ cryptate and of XL665 was recorded at 620 nm (I620) and 665 nm (I665), respectively, after excitation of Eu^3+ cryptate at 317 nm, in an Infinite M1000 PRO microplate reader (TECAN). Results are expressed as the ratio of I665/I620. The HTRF signal corresponds to the ratio of fluorescence at 665 and 620 nm (I665/I620). […]

Sequence of interaction between the HIV-1 integrase (IN) and the catalytic domain of the human mitochondrial lysyl-tRNA synthetase (mLysRS) (Q15046 whole entry, looked up, other chains not shown, the tested form may be a part): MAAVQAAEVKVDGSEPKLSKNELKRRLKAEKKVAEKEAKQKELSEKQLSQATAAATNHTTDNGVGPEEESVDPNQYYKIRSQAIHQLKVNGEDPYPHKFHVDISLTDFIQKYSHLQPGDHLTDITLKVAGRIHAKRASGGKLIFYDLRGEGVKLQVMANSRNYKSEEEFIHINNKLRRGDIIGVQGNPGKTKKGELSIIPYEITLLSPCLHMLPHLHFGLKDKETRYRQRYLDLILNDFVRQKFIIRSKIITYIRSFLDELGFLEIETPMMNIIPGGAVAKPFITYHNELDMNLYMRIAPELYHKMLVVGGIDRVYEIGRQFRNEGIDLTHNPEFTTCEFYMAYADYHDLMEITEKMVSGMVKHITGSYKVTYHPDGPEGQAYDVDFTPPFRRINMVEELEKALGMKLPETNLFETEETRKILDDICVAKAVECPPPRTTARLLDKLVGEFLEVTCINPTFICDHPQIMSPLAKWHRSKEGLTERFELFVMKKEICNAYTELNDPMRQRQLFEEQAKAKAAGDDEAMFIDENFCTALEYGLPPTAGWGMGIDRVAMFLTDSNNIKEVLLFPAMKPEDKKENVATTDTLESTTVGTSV

With `CN1CCCC(n2nc(Cc3ccc(Cl)cc3)c3ccccc3c2=O)CC1` (stereo not drawn) [II-a] as the compound, how does the “production of viral particles” value [1] read?
The value was “greatly reduced”.

And the cellular toxicity (MT4 cells)?
The cellular toxicity was “no cellular toxicity has been observed”.

What about the IC50 [2] of the same compound?
Its IC50 is 300 ± 50 µM.

For `CC1=C(C(=O)OC(C)C)C(c2cccc([N+](=O)[O-])c2)C(C(=O)OC2CN(C(c3ccccc3)c3ccccc3)C2)=C(N)N1` (stereo not drawn) [I-d], which IC50 [2] is on record?
Its IC50 is 400 ± 150 µM.

How did the cellular toxicity (MT4 cells) turn out when `CCOC(=O)C1=C(C)NC(C)=C(C(=O)OCC)C1c1ccccc1/C=C/C(=O)OC(C)(C)C` [I-a] was run?
Its cellular toxicity is “no cellular toxicity has been observed”.

For `COCCOC(=O)C1=C(C)NC(C)=C(C(=O)OC/C=C/c2ccccc2)C1c1cccc([N+](=O)[O-])c1` (stereo not drawn) [I-b], which cellular toxicity (MT4 cells) is on record?
The cellular toxicity was “no cellular toxicity has been observed”.
